# Source: US20110301142A1, “ANTAGONISTS OF LYSOPHOSPHATIDIC ACID RECEPTORS” (priority 2008, published 2011)
# pIC50: −log10 of the molar value.
# Assays:
# human LPA1 = target: T1, human LPA1 (Homo sapiens, UniProt Q92633); assay: LPA1 calcium flux assay (HLPA1 Ca Flux); type: cell-based; conditions: Human LPA1 expressing CHO cells, stimulated with 10 nM LPA
# T1 construct: the full-length cDNA for human LPA1 was obtained by PCR of the reverse transcription reaction; expressed in transfected cells
# T1 sequence (Q92633 whole entry): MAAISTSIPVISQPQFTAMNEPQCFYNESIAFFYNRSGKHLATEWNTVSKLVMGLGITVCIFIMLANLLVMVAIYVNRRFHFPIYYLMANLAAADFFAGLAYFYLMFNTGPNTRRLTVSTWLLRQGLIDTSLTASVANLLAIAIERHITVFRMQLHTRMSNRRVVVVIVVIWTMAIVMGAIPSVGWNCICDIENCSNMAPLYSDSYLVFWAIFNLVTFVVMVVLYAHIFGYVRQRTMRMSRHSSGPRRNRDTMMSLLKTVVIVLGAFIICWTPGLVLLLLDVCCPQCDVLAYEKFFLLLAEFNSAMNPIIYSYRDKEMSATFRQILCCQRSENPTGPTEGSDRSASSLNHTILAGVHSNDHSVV
# Description: A 1.1 kb cDNA encoding the human LPA1 receptor was cloned from human lung. Human lung RNA (Clontech Laboratories, Inc. USA) was reverse transcribed using the RETROscript kit (Ambion, Inc.) and the full-length cDNA for human LPA1 was obtained by PCR of the reverse transcription reaction. The nucleotide sequence of the cloned human LPA1 was determined by sequencing and confirmed to be identical to the published human LPA1 sequence (An et al. Biochem. Biophys. Res. Commun. 231:619 (1997). The cDNA was cloned into the pcDNAS/FRT expression plasmid and transfected in CHO cells using lipofectamine 2000 (Invitrogen Corp., USA). Clones stably expressing human LPA1 were selected using hygromycin and identified as cells that show Ca-influx in response to LPA.
# (§1) Human LPA1 or LPA3 expressing CHO cells are seeded at 20,000-45,000 cells per well in a 96-well poly-D-lysine coated plate one or two days before the assay. Prior to the assay, the cells are washed once with PBS and then cultured in serum-free media overnight. On the day of the assay, a calcium indicator dye (Calcium 4, Molecular Devices) in assay buffer (HBSS with Ca^2+ and Mg^2+ and containing 20 mM Hepes and 0.3% fatty-acid free human serum albumin) is added to each well and incubation continued for 1 hour at 37° C. 10 μl of test compounds in 2.5% DMSO are added to the cells and incubation continued at room temperature for 30 minutes. Cells are the stimulated by the addition of 10 nM LPA and intracellular Ca^2+ measured using the Flexstation 3 (Molecular Devices). IC50s are determined using Graphpad prism analysis of drug titration curves.
# human LPA3 = target: T2, human LPA3 (Homo sapiens, UniProt Q9UBY5); assay: LPA3 calcium flux assay; type: cell-based; conditions: Human LPA3 expressing CHO cells, stimulated with 10 nM LPA; read-out: HLPA3 Ca Flux IC50
# T2 construct: The full-length cDNA fragment for human LPA3 was obtained by PCR from the vector; expressed in transfected cells; cDNA from the Missouri S&T cDNA Resource Center
# T2 sequence (Q9UBY5 1-353): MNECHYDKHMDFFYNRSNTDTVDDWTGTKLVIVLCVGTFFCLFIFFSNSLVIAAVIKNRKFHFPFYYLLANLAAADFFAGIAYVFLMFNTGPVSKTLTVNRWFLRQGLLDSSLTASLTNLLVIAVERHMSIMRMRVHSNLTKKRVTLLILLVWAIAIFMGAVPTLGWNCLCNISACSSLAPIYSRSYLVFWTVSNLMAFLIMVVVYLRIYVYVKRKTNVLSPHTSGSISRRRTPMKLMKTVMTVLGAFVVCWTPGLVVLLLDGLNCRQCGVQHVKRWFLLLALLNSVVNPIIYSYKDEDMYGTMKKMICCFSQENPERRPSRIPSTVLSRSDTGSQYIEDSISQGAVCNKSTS
# Description: A vector containing the human LPA3 receptor cDNA was obtained from the Missouri S&T cDNA Resource Center (www.cdna.org). The full-length cDNA fragment for human LPA3 was obtained by PCR from the vector. The nucleotide sequence of the cloned human LPA3 was determined by sequencing and confirmed to be identical to the published human LPA3 sequence (NCBI accession number NM 012152). The cDNA was cloned into the pcDNA5/FRT expression plasmid and transfected in CHO cells using lipofectamine 2000 (Invitrogen Corp., USA). Clones stably expressing human LPA3 were selected using hygromycin and identified as cells that show Ca-influx in response to LPA.
# as §1
SMILES,pIC50 (human LPA1),pIC50 (human LPA3)
"Cc1noc(-c2ccc(Cc3cccc(C(=O)O)c3)cc2)c1NC(=O)OC(C)c1ccccc1Cl (stereo not drawn) [Compound 1-5, 3-(4-{4-[1-(2-Chloro-phenyl)-ethoxycarbonylamino]-3-methyl-isoxazol-5-yl}-benzyl)-benzoic acid]",> 6.52,4.30 to 6.00
"COc1ccc(CC(=O)O)cc1Cc1ccc(-c2onc(C)c2NC(=O)OC(C)c2ccccc2Cl)cc1 (stereo not drawn) [Compound 1-7, [3-(4-{4-[1-(2-Chloro-phenyl)-ethoxycarbonylamino]-3-methyl-isoxazol-5-yl}-benzyl)-4-methoxy-phenyl]-acetic acid]",6.00 to 6.52,4.30 to 6.00
"Cc1noc(-c2ccc(Cn3cc(C(=O)O)cn3)cc2)c1NC(=O)OC(C)c1ccccc1Cl (stereo not drawn) [Compound 1-9, 1-(4-{4-[1-(2-Chloro-phenyl)-ethoxycarbonylamino]-3-methyl-isoxazol-5-yl}-benzyl)-1H-pyrazole-4-carboxylic acid]",> 6.52,4.30 to 6.00
"Cc1noc(-c2ccc(COc3cccc(C(=O)O)c3)cc2)c1NC(=O)OC(C)c1ccccc1Cl (stereo not drawn) [Compound 1-12, 3-(4-{4-[1-(2-Chloro-phenyl)-ethoxycarbonylamino]-3-methyl-isoxazol-5-yl}-benzyloxy)-benzoic acid]",> 6.52,4.30 to 6.00
"Cc1noc(-c2ccc(Cc3ccc(C(=O)O)s3)cc2)c1NC(=O)OC(C)c1ccccc1Cl (stereo not drawn) [Compound 1-15, 5-(4-{4-[1-(2-Chloro-phenyl)-ethoxycarbonylamino]-3-methyl-isoxazol-5-yl}-benzyl)-thiophene-2-carboxylic acid]",> 6.52,4.30 to 6.00
"Cc1noc(-c2ccc(CSc3ccc(CC(=O)O)cc3)cc2)c1NC(=O)OC(C)c1ccccc1Cl (stereo not drawn) [Compound 1-17, [4-(4-{4-[1-(2-Chloro-phenyl)-ethoxycarbonylamino]-3-methyl-isoxazol-5-yl}-benzylsulfanyl)-phenyl]-acetic acid]",> 6.52,4.30 to 6.00
"Cc1noc(-c2ccc(CSc3ccccc3CC(=O)O)cc2)c1NC(=O)OC(C)c1ccccc1Cl (stereo not drawn) [Compound 1-19, [2-(4-{4-[1-(2-Chloro-phenyl)-ethoxycarbonylamino]-3-methyl-isoxazol-5-yl}-benzylsulfanyl)-phenyl]acetic acid]",> 6.52,4.30 to 6.00
"Cc1noc(-c2ccc(Cc3ccc(CC(=O)O)cc3)cc2)c1NC(=O)OC(C)c1ccccc1Cl (stereo not drawn) [Compound 1-20, [4-(4-{4-[1-(2-Chloro-phenyl)-ethoxycarbonylamino]-3-methyl-isoxazol-5-yl}-benzyl)-phenyl]-acetic acid]",> 6.52,4.30 to 6.00
"Cc1noc(-c2ccc(Cc3cccc(CC(=O)O)c3)cc2)c1NC(=O)OC(C)c1ccccc1Cl (stereo not drawn) [Compound 1-21, [3-(4-{4-[1-(2-Chloro-phenyl)-ethoxycarbonylamino]-3-methyl-isoxazol-5-yl}-benzyl)-phenyl]acetic acid]",> 6.52,4.30 to 6.00
"Cc1noc(-c2ccc(-c3ccc(CC(=O)O)cc3)cc2)c1NC(=O)OC(C)c1ccccc1C(F)(F)F (stereo not drawn) [Compound 1-23, (4′-{3-Methyl-4-[1-(2-trifluoromethyl-phenyl)-ethoxycarbonylamino]-isoxazol-5-yl}-biphenyl-4-yl)-acetic acid]",> 6.52,4.30 to 6.00
"Cc1noc(-c2ccc(-c3ccc(CC(=O)O)cc3)cc2)c1NC(=O)OC(C)c1cccc(C(F)(F)F)c1 (stereo not drawn) [Compound 1-24, (4′-{3-Methyl-4-[1-(3-trifluoromethyl-phenyl)-ethoxycarbonylamino]-isoxazol-5-yl}-biphenyl-4-yl)-acetic acid]",6.00 to 6.52,4.30 to 6.00
"Cc1noc(-c2ccc(-c3ccc(CC(=O)O)cc3)cc2)c1NC(=O)OC(C)c1ccc(Cl)cc1Cl (stereo not drawn) [Compound 1-25, (4′-{4-[1-(2,4-Dichloro-phenyl)-ethoxycarbonylamino]-3-methyl-isoxazol-5-yl}-biphenyl-4-yl)-acetic acid]",> 6.52,4.30 to 6.00
"Cc1noc(-c2ccc(-c3ccc(CC(=O)O)cc3)cc2)c1NC(=O)OC(C)c1ccccc1F (stereo not drawn) [Compound 1-26, (4′-{4-[1-(2-Fluoro-phenyl)-ethoxycarbonylamino]-3-methyl-isoxazol-5-yl}-biphenyl-4-yl)-acetic acid]",> 6.52,4.30 to 6.00
"Cc1noc(-c2ccc(-c3ccc(CC(=O)O)cc3)cc2)c1NC(=O)OC(C)c1cccc(Br)c1 (stereo not drawn) [Compound 1-27, (4′-{4-[1-(3-Bromo-phenyl)-ethoxycarbonylamino]-3-methyl-isoxazol-5-yl}-biphenyl-4-yl)-acetic acid]",> 6.52,4.30 to 6.00

# Now from value to molecule:
pIC50 (human LPA1),pIC50 (human LPA3),SMILES
> 6.52,< 4.30,"COc1ccccc1C(C)OC(=O)Nc1c(C)noc1-c1ccc(-c2ccc(CC(=O)O)cc2)cc1 (stereo not drawn) [Compound 1-28, (4′-{4-[1-(2-Methoxy-phenyl)-ethoxycarbonylamino]-3-methyl-isoxazol-5-yl}-biphenyl-4-yl)-acetic acid]"
6.00 to 6.52,4.30 to 6.00,"COc1ccc(CC(=O)O)cc1-c1cccc(-c2onc(C)c2NC(=O)OC(C)c2ccccc2Cl)c1 (stereo not drawn) [Compound 1-30, (3′-{4-[1-(2-Chloro-phenyl)-ethoxycarbonylamino]-3-methyl-isoxazol-5-yl}-6-methoxy-biphenyl-3-yl)-acetic acid]"
4.30 to 6.00,4.30 to 6.00,"Cc1noc(-c2cccc(-c3cccc(C(=O)O)c3)c2)c1NC(=O)OC(C)c1ccccc1Cl (stereo not drawn) [Compound 1-31, 3′-{4-[1-(2-Chloro-phenyl)-ethoxycarbonylamino]-3-methyl-isoxazol-5-yl}-biphenyl-3-carboxylic acid]"
> 6.52,< 4.30,"Cc1noc(-c2cccc(C3=CCC(C(=O)O)CC3)c2)c1NC(=O)OC(C)c1ccccc1Cl (stereo not drawn) [Compound 1-45, 4-(3-{4-[1-(2-Chloro-phenyl)-ethoxycarbonylamino]-3-methyl-isoxazol-5-yl}-phenyl)-cyclohex-3-enecarboxylic acid]"
> 6.52,< 4.30,Cc1noc(-c2ccc(-c3ccc(CC(=O)O)cc3)nc2)c1NC(=O)OC(C)c1ccccc1F (stereo not drawn) [Compound 1-48]
6.00 to 6.52,4.30 to 6.00,"COc1ccc(CC(=O)O)cc1-c1ccc(-c2onc(C)c2NC(=O)OC(C)c2ccccc2Cl)cc1 (stereo not drawn) [Compound 1-49, (4′-{4-[1-(2-Chloro-phenyl)-ethoxycarbonylamino]-3-methyl-isoxazol-5-yl}-6-methoxy-biphenyl-3-yl)-acetic acid]"
> 6.52,4.30 to 6.00,"Cc1noc(-c2ccc(-c3cc(C(=O)O)ccn3)cc2)c1NC(=O)OC(C)c1ccccc1Cl (stereo not drawn) [Compound 1-50, 2-(4-{4-[1-(2-Chloro-phenyl)-ethoxycarbonylamino]-3-methyl-isoxazol-5-yl}-phenyl)-isonicotinic acid]"
> 6.52,4.30 to 6.00,"Cc1noc(-c2ccc(-c3ccc(C(=O)O)cc3)cc2)c1NC(=O)OC(C)c1ccccc1Cl (stereo not drawn) [Compound 1-51, 4′-{4-[1-(2-Chloro-phenyl)-ethoxycarbonylamino]-3-methyl-isoxazol-5-yl}-biphenyl-4-carboxylic acid]"
> 6.52,4.30 to 6.00,"Cc1noc(-c2ccc(-c3cccc(C(=O)O)n3)cc2)c1NC(=O)OC(C)c1ccccc1Cl (stereo not drawn) [Compound 1-53, 6-(4-{4-[1-(2-Chloro-phenyl)-ethoxycarbonylamino]-3-methyl-isoxazol-5-yl}-phenyl)-pyridine-2-carboxylic acid]"
> 6.52,4.30 to 6.00,"Cc1noc(-c2ccc(-c3ccc(C(=O)O)cn3)cc2)c1NC(=O)OC(C)c1ccccc1Cl (stereo not drawn) [Compound 1-54, 6-(4-{4-[1-(2-Chloro-phenyl)-ethoxycarbonylamino]-3-methyl-isoxazol-5-yl}-phenyl)-nicotinic acid]"
